Laboratory results: US20060217340A1, “Methods and products for treating hypertension by modulation of TRPC3 channel activity” (University of Vermont and State Agricultural College, priority 2005, published 2006)

Experiments:
[1] = tested on: smooth muscle cells isolated from sense- or antisense-treated cerebral arteries; test: Perforated patch clamp, UTP-activated whole-cell current; type: cell-based, rat; conditions: 30 μM UTP
Protocol: Patch clamp electrophysiology. Single smooth muscle cells were enzymatically isolated from sense- or antisense-treated cerebral arteries using an isolation solution of the following composition (in mM): 60 NaCl, 58 sodium glutamate, 5.6 KCl, 2 MgCl2, 10 glucose, 0.1 CaCl2, 10 HEPES (pH 7.4) with 0.5 mg/ml papain, and 1 mg/ml dithioerythritol added. After 10 minutes, arterial segments were placed in a second isolation solution containing 0.1 mM CaCl2 and a collagenase type F and hyaluronidase mixture (1 mg/ml each). Trituration was performed with a polished wide-bore pipette and the cells were stored on ice and used the same day. Whole cell ionic currents were measured using the perforated patch method in the presence or absence of 30 μM UTP. Recording electrodes (4-7 MΩ resistance) were pulled from borosilicate glass. Plated cells were voltage clamped and held at −60 mV for 15 minutes prior to experimentation; whole cell currents were monitored while voltage was slowly ramped (−120 to +20 mV, 0.167 mV/ms); currents were not leak subtracted. The bath solution contained (in mM): 120 NaCl, 1.2 MgCl2, 1.8 CaCl2, 10 HEPES (pH 7.4), and 10 glucose. The pipette solution contained (in mM): 120 CsCl, 3 MgCl2, 0.1 EGTA, 10 HEPES (pH 7.2), 10 glucose and 200 μg/ml amphotericin B. A series resistance of approximately 40 MΩ was accepted for all perforated patch clamp experiments. Membrane currents were filtered at 1 kHz, digitized at 5 kHz and stored in a personal computer system for subsequent analysis. pClamp 8.1 and Clampfit 8.1 (Axon Instruments) were used to record and analyze membrane currents. Cell capacitance was measured with the cancellation circuitry of the voltage-clamp amplifier (Axopatch 200A amplifier, Axon Instruments, Sunnyvale, Calif., USA). All current recordings were performed at room temperature (22° C.).

[2] = tested on: pressurized rat cerebral arteries; test: Arterial wall Ca2+ concentration measurement (FURA-2) in isolated arteries; type: cell-based; conditions: for change in arterial wall Ca2+: Ca2+ returned to superfusate in the presence of UTP and nimodipine
Protocol: Diameter and membrane potential recordings. […] In experiments using Ca^2+-free PSS, CaCl2 was omitted and 3 mM EGTA and 30 μM diltiazem added. In experiments with diacylglycerol induction, 300 μM of the diacylglycerol analogue OAG (1-oleyol-2-acetyl-sn-glycerol) was added. […] To verify endothelial cell removal the arteries were pressurized to 60 mmHg and allowed to develop myogenic tone prior to exposing the vessels to 1 μM UTP. […] Arterial diameter or membrane potential (Vm) of sense and anti-sense treated arteries was measured in the absence (control) or presence of UTP (concentration range: 0.1 to 10 μM). Membrane potential was measured by inserting a sharp glass electrode (≈100 MΩ resistance) containing 0.5M KCl into the vessel wall. […] Measurements were made using an electrometer (World Precision Instruments) and the data were recorded via computer using Axotape and Dataq software. Arterial diameter was measured using a video dimension analyzer (IonOptix Corporation; Milton, Mass.).
Ca^2+ concentration measurement in isolated arteries. Mounted arteries were equilibrated in 1.6 m M PSS for 40 minutes at 37° C. (pH 7.4) prior to loading the vascular smooth muscle cells with the Ca^2+-sensitive fluorescent dye, FURA-2. To load the cells, the 1.6 mM PSS was gradually replaced over 5 minutes with HEPES solution (25° C., pH 7.4). A total of 40 μL of a premixed 100 μM FURA-2-acetoxymethyl ester solution (100 μg FURA-2, 200 μL Pluronic acid, 800 μL DMSO) was added directly to the HEPES to give a final concentration of 2 μM FURA-2 AM. Loading continued in the dark at 25° C. (pH 7.4) for 40 minutes. At the end of the loading period, the HEPES was replaced with 1.6 mM PSS (35° C., pH 7.4) and 30 minutes was allowed for complete de-esterification of the FURA-2 AM before [Ca^2+]c measurements were made. FURA-2 fluorescence was measured using a photomultiplier system (IonOptix Corporation; Milton, Mass., USA) in which background-corrected ratios of the 510-nm emission from arteries alternatively excited at 340 and 380 nm were obtained at a sampling rate of 5 Hz.

| Substance | cells with UTP-activated whole cell current ([1]; voltage ramps −120 mV to 20 mV) | change in arterial wall Ca2+ [2] [nM] | SMCs in which the response to UTP was absent [1] | SMCs in which the response to UTP was greatly suppressed [1] | increase in arterial wall Ca2+ ([2]; 300 μM OAG) [nM] |
| --- | --- | --- | --- | --- | --- |
| 5′-TATTCCAGTTCATGGTTCTC-3′ (SEQ ID: 7) and 5′-TGTCTGGTCGTGTTGGTCGT-3′ (SEQ ID: 8) (phosphorothioate ends, further chemistry not given here) [TRPC3 sense, sense control ODNs based on the rat TRPC3 gene; end bases phosphorothioated] | 8 of 9 | 100 ± 22 | – | – | – |
| 5′-GAGAACCATGAACTGGAATA-3′ (SEQ ID: 9) and 5′-ACGACCAACACGACCAGACA-3′ (SEQ ID: 10) (phosphorothioate ends, further chemistry not given here) [TRPC3 antisense, antisense ODNs based on the rat TRPC3 gene; last five bases on the 5′ and 3′ end phosphorothioated] | – | 50 ± 12 | 3 of 5 | 2 of 5 | 6 ± 2 |
